According to PubChem BioAssay AID2060912 (Molecular Pharmacology Branch, DTP, NCI, 2025):

System: HUVEC/MSC spheroids viability
Test: Human HUVEC/MSC cell line growth inhibition [KRAS2];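 on viability, T/C: percent of DMSO vehicle control luminescence so 100% = untreated viability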
Details: for IC50: curve of first compound; for viability, T/C: stronger effect = lower value
Source text: Multicellular complex tumor spheroid response to RAS pathway inhibitors in combination with a targeted agents in patient-derived cell lines with oncogenic KRAS variants from multiple cancer types
A high-throughput screen of multi-cell type tumor spheroids was designed to identify active combinations of targeted small molecules and KRAS pathway inhibitors. Complex spheroids include a stromal component modeled by human endothelial cells (HUVEC) and fibroblasts modeled by human mesenchymal stem cells (MSCs). The concentration ranges selected for each drug and investigational agent were based upon clinically achievable concentrations if the clinical Cmax of the agent was known. * [This particular assayID is a followup dataset requested by reviewers of the manuscript. It is a test of the HUVEC and MSC without the tumor cells, and was conducted using different drug plates and a different plate layout.]
Compounds. The drugs and investigational agents: BI-3406 (NSC825286), BAY-293 (NSC824723), batoprotafib (TNO155; NSC825523), sotorasib (AMG 510; NSC818433), MRTX1257 (NSC819558), elimusertib (BAY 1895344; NSC800525), molibresib (GSK525762; NSC774829), temuterkib (LY3214996; NSC803410), venetoclax (NSC766270), alisertib (NSC759677), olaparib (NSC753686), talazoparib (NSC767125), erdafitinib (NSC781556), ipatasertib (NSC767898), cabozantinib (NSC761068), nintedanib (NSC756659), abemaciclib (NSC768073), docetaxel (NSC628503), trametinib (NSC758246), and sapanisertib (NSC764658) were obtained from the National Cancer Institute (NCI) Developmental Therapeutics Program Chemical Repository. The FDA-approved anticancer drug set is available from the Developmental Therapeutics Program. […] The stock solutions were prepared in dimethyl sulfoxide (DMSO, Sigma-Aldrich, St. Louis, MO, cat. D2650) at 800-fold the tested concentration and stored at -70 degrees C prior to their use. All drugs and investigational agents were tested over a range starting from a high concentration at or near the clinical Cmax and decreasing in half-log increments. If the clinical Cmax for an agent had not been determined, the highest concentration tested was 10 microM.
Cell Culture. All cells were maintained in an incubator at 37 degrees C and 5% CO2 with 95% humidity. The PDC lines were cultured according to standard operating procedures established by the NCI PDMR (https://pdmr.cancer.gov/sops/default.htm). Briefly, all PDCs were thawed and cultured in Matrigel-coated flasks prepared with a working solution of 1X Ham's F-12 nutrient mix, without supplementation (Invitrogen, Waltham, MA, cat. 11765054), 100 U/mL penicillin-streptomycin (Invitrogen, cat. 15140122), and 2.5% Matrigel (Corning Inc., Corning, NY, cat. 354248) for the first three passages. All PDCs were cultured in complete DMEM/F-12 media containing advanced DMEM/F-12 (Invitrogen, cat. 12634028), 4.9% defined fetal bovine serum, heat inactivated (HyClone Laboratories Inc., Logan, UT, cat. SH30070.03HI), 389 ng/mL hydrocortisone (Sigma-Aldrich, cat. H4001), 9.7 ng/mL human EGF recombinant protein (Invitrogen, cat. PHG0313), 23.4 microg/mL adenine (Sigma-Aldrich, cat. A2786), 97.3 U/mL penicillin-streptomycin (Invitrogen, cat. 15140122), 1.9 mM L-glutamine (Invitrogen, cat. 25030081), and 9.7 microM Y-27632 dihydrochloride (Tocris Bioscience, Bristol, United Kingdom, cat. 1254). The PDCs were cultured in complete DMEM/F12 media without 9.7 microM Y-27632 dihydrochloride for at least two passages prior to the screen. The established cell line HOP-62 was cultured in RPMI 1640 medium, HEPES (Invitrogen, cat. 22400105) with 10% defined fetal bovine serum (HyClone Laboratories Inc., cat. SH30070.03) and 2 mM L-glutamine (Invitrogen, cat. 25030081). The pooled donor HUVEC were cultured in endothelial cell growth medium 2 (PromoCell, Heidelberg, Germany, cat. C-22011) and the hMSC were cultured in mesenchymal stem cell growth medium 2 (PromoCell, cat. C-28009). […]

[1] = second compound 0.0316 µM, first compound 0.0316 µM
[2] = second compound 0.0316 µM, first compound 0.1 µM
[3] = second compound 0.1 µM, first compound 0.0316 µM
[4] = second compound 0.1 µM, first compound 0.1 µM
[5] = second compound 0.316 µM, first compound 0.0316 µM
[6] = second compound 0.316 µM, first compound 0.1 µM
[7] = second compound 1 µM, first compound 0.0316 µM
[8] = second compound 1 µM, first compound 0.1 µM
[9] = second compound 3.16 µM, first compound 0.0316 µM
[10] = second compound 3.16 µM, first compound 0.1 µM
[11] = second compound 10 µM, first compound 0.0316 µM
[12] = second compound 10 µM, first compound 0.1 µM

Structure (SMILES): CC1(C)CCC(CN2CCN(c3ccc(C(=O)NS(=O)(=O)c4ccc(NCC5CCOCC5)c([N+](=O)[O-])c4)c(Oc4cnc5[nH]ccc5c4)c3)CC2)=C(c2ccc(Cl)cc2)C1 + CC1OCC2(CCN(c3cnc(Sc4ccnc(N)c4Cl)c(N)n3)CC2)C1N
- IC50 (second compound 0.0316 µM): 5.15 µM
- IC50 (second compound 0.1 µM): 4.69 µM
- IC50 (second compound 0.316 µM): 4.77 µM
- IC50 (second compound 1 µM): 4.47 µM
- IC50 (second compound 3.16 µM): 3.51 µM
- IC50 (second compound 10 µM): 2.23 µM
- viability, T/C [1]: 99.2%
- viability, T/C [2]: 116%
- viability, T/C (second compound 0.0316 µM, first compound 0.316 µM): 109%
- viability, T/C (second compound 0.0316 µM, first compound 1 µM): 108%
- viability, T/C (second compound 0.0316 µM, first compound 3.16 µM): 83.8%
- viability, T/C (second compound 0.0316 µM, first compound 10 µM): 4.11%
- viability, T/C [3]: 116%
- viability, T/C [4]: 110%
- viability, T/C (second compound 0.1 µM, first compound 0.316 µM): 102%
- viability, T/C (second compound 0.1 µM, first compound 1 µM): 94.9%
- viability, T/C (second compound 0.1 µM, first compound 3.16 µM): 78.6%
- viability, T/C (second compound 0.1 µM, first compound 10 µM): 1.56%
- viability, T/C [5]: 91.5%
- viability, T/C [6]: 124%
- viability, T/C (second compound 0.316 µM, first compound 0.316 µM): 122%
- viability, T/C (second compound 0.316 µM, first compound 1 µM): 110%
- viability, T/C (second compound 0.316 µM, first compound 3.16 µM): 75.6%
- viability, T/C (second compound 0.316 µM, first compound 10 µM): 3.8%
- viability, T/C [7]: 91%
- viability, T/C [8]: 95%
- viability, T/C (second compound 1 µM, first compound 0.316 µM): 102%
- viability, T/C (second compound 1 µM, first compound 1 µM): 92.3%
- viability, T/C (second compound 1 µM, first compound 3.16 µM): 71.6%
- viability, T/C (second compound 1 µM, first compound 10 µM): 0.34%
- viability, T/C [9]: 93.2%
- viability, T/C [10]: 91.9%
- viability, T/C (second compound 3.16 µM, first compound 0.316 µM): 93%
- viability, T/C (second compound 3.16 µM, first compound 1 µM): 66.1%
- viability, T/C (second compound 3.16 µM, first compound 3.16 µM): 61.3%
- viability, T/C (second compound 3.16 µM, first compound 10 µM): 0.92%
- viability, T/C [11]: 76%
- viability, T/C [12]: 76.2%
- viability, T/C (second compound 10 µM, first compound 0.316 µM): 85.1%
- viability, T/C (second compound 10 µM, first compound 1 µM): 69.8%
- viability, T/C (second compound 10 µM, first compound 3.16 µM): 40.9%
- viability, T/C (second compound 10 µM, first compound 10 µM): 0.29%

Structure (SMILES): CC(C)n1nc(-c2ccc3oc(N)nc3c2)c2c(N)ncnc21 + CNCc1ccccc1-c1csc(C(C)Nc2nc(C)nc3cc(OC)c(OC)cc23)c1
- IC50 (second compound 0.0316 µM): 0.00315 µM
- IC50 (second compound 0.1 µM): 0.00311 µM
- IC50 (second compound 0.316 µM): 0.00712 µM
- IC50 (second compound 1 µM): 0.00798 µM
- IC50 (second compound 3.16 µM): 0.00784 µM
- IC50 (second compound 10 µM): < 0.000316 µM
- viability, T/C (second compound 0.0316 µM, first compound 0.000316 µM): 85.2%
- viability, T/C (second compound 0.0316 µM, first compound 0.001 µM): 69%
- viability, T/C (second compound 0.0316 µM, first compound 0.00316 µM): 50.2%
- viability, T/C (second compound 0.0316 µM, first compound 0.01 µM): 44%
- viability, T/C [1]: 45.5%
- viability, T/C [2]: 44.4%
- viability, T/C (second compound 0.1 µM, first compound 0.000316 µM): 84.8%
- viability, T/C (second compound 0.1 µM, first compound 0.001 µM): 64.6%
- viability, T/C (second compound 0.1 µM, first compound 0.00316 µM): 49.9%
- viability, T/C (second compound 0.1 µM, first compound 0.01 µM): 45.6%
- viability, T/C [3]: 46.4%
- viability, T/C [4]: 45%
- viability, T/C (second compound 0.316 µM, first compound 0.000316 µM): 81.9%
- viability, T/C (second compound 0.316 µM, first compound 0.001 µM): 66.5%
- viability, T/C (second compound 0.316 µM, first compound 0.00316 µM): 50.5%
- viability, T/C (second compound 0.316 µM, first compound 0.01 µM): 51.9%
- viability, T/C [5]: 45.4%
- viability, T/C [6]: 37.6%
- viability, T/C (second compound 1 µM, first compound 0.000316 µM): 70.1%
- viability, T/C (second compound 1 µM, first compound 0.001 µM): 52.5%
- viability, T/C (second compound 1 µM, first compound 0.00316 µM): 56.2%
- viability, T/C (second compound 1 µM, first compound 0.01 µM): 50.6%
- viability, T/C [7]: 47%
- viability, T/C [8]: 37.5%
- viability, T/C (second compound 3.16 µM, first compound 0.000316 µM): 89.7%
- viability, T/C (second compound 3.16 µM, first compound 0.001 µM): 79%
- viability, T/C (second compound 3.16 µM, first compound 0.00316 µM): 67.5%
- viability, T/C (second compound 3.16 µM, first compound 0.01 µM): 40.7%
- viability, T/C [9]: 50.2%
- viability, T/C [10]: 36.5%
- viability, T/C (second compound 10 µM, first compound 0.000316 µM): 0.36%
- viability, T/C (second compound 10 µM, first compound 0.001 µM): 0.39%
- viability, T/C (second compound 10 µM, first compound 0.00316 µM): 0.37%
- viability, T/C (second compound 10 µM, first compound 0.01 µM): 0.37%
- viability, T/C [11]: 0.42%
- viability, T/C [12]: 0.4%

Structure (SMILES): CC(C)n1nc(-c2ccc3oc(N)nc3c2)c2c(N)ncnc21
- viability, T/C (compound 0.001 µM): 68.3% [middle of 5 runs]
- viability, T/C (compound 0.00316 µM): 51.2% [middle of 5 runs]
- viability, T/C (compound 0.01 µM): 47.9% [middle of 5 runs]
- viability, T/C (compound 0.0316 µM): 47.5% [middle of 5 runs]
- viability, T/C (compound 0.1 µM): 43.9% [middle of 5 runs]
